The numbers were not newly measured in patent publication US10568327B1, “Method of controlling phytopathogenic diseases on turfgrass” (Syngenta Crop Protection LLC, priority 2012, dated 2020), which cites them from elsewhere.

SMILES strings stand for the structures. Where two headings read alike, the source gives them in different places.

This data set deals with creeping bentgrass greens.

Regarding `CSC(=O)c1cccc2nnsc12` [acibenzolar-S-methyl, S-methyl benzo[1,2,3]thiadiazole-7-carbothioate], the Turf quality result runs as follows: (6.1 grams/1,000 square meters, with reduced chlorothalonil rates, creeping bentgrass greens, Fry et al. 2006) “below standard”; (with chlorothalonil at lower than recommended rate, creeping bentgrass putting greens, Zhang et al. 2005) “unacceptable”.
